The values that follow come from PMC10348910, “Epigenetic reprogramming of cell cycle genes by ACK1 promotes breast cancer resistance to CDK4/6 inhibitor” (Oncogene, 2023).

The subject of one test is MCF7 xenografts. The test is described as follows: MCF7 xenograft in mammary fat pad. The conditions noted are these: orally 36 mg/Kg or subcutaneously 24 mg/Kg. Type of test: in vivo, female SCID mice. The method, then: Fig. 6 (R)-9b inhibits breast cancer xenograft tumor growth in vivo. A 2 × 10^6 Cal-148 cells were injected in the 4th inguinal mammary fat pad of female SCID mice. Once the tumors were palpable, the mice were treated subcutaneously with either vehicle (Captisol; n = 8) or (R)-9b at 24 mg/Kg (n = 8) five times a week, for 4 weeks. The tumor volumes were measured twice a week. B, C The tumors were harvested and photographed, and the weights were recorded. D RNA was prepared from the tumors, followed by qRT-PCR to determine the levels of CCNB1, CCNB2 and CDC20 mRNA (n = 3 each). E and F 2 × 10^6 MCF7 cells were injected in the 4th inguinal mammary fat pad of female SCID mice with continuous supplementation of estrogen. Once the tumors were palpable, the mice were treated with vehicle (Captisol; n = 7), (R)-9b at 24 mg/Kg subcutaneously (n = 8), or orally with (R)-9b at 36 mg/Kg (n = 8), five times a week, for 4 weeks. The tumors were harvested, their weights were recorded and photographed. G Tumor lysates were subjected to immunoblotting using pACK1, CCNB1, CCNB2, CDC20 and Actin antibodies (n = 3 each). H RNA was prepared from the tumors, followed by qRT-PCR to determine the levels of CCNB1, CCNB2 and CDC20 mRNA (n = 3 each). Data are represented as the mean ± SEM. *p < 0.05; **p < 0.01; ***p < 0.001. For (C) and (D), unpaired two-tailed Student’s t test, and for (E) and (H), one way ANOVA was performed.
In addition, effect of (R)-9b was assessed in ER^+/PR^+ breast cancer xenografts. Briefly, MCF7 cells were implanted in mammary fat pad of female SCID mice. Once the tumors were palpable, the mice were treated orally (36 mg/Kg) or injected subcutaneously with 24 mg/Kg of (R)-9b for 4 weeks. […] Further, RNA was isolated from the xenograft tumors and CDC20, CCNB1 and CCNB2 mRNA levels were examined.
All animal experiments were performed using the standards for humane care in accordance with the NIH Guide for the Care and Use of Laboratory Animals. […] Tumor volumes were measured twice a week using calipers. […]

A further test relates to pY284-ACK1. The test is described as follows: immunoprecipitation and immunoblotting for pY284-ACK1. Type of test: cell-based. The conditions noted are these: MDA-MB-231, HCC-1395, Cal148, T47D, MCF7, SKBR3, MDA-MB-453; overnight. The method, then:
Fig. 2 ACK1 regulates breast cancer transcriptome, affecting genes implicated in cell cycle progression. A Chemical structure of (R)-9b. B Breast cancer cell lines were treated with either vehicle or (R)-9b overnight and cell lysates were subjected to immunoprecipitation using ACK1 antibody, followed by immunoblotting with pY284-ACK1 antibody. Lysates were also subjected to immunoblotting with total ACK1 and Actin antibodies, shown in the lower panels. […] C Breast cancer cell lines were treated with varying concentrations of (R)-9b for 96 h and the cell proliferation was measured using Trypan Blue exclusion method. D–H RNA from breast cancer cells treated with vehicle or varying concentrations of (R)-9b overnight, and were subjected to qRT-PCR using CCNB1, CCNB2 and CDC20 primers. Actin or 18S rRNA was used as housekeeping control. For (B), representative images of three independent experiments are shown. For (C), a four parameter, variable slope, non-linear regression curve was computed, representing three independent experiments. For (D–H), data are represented as the mean ± SEM. *p < 0.05, **p < 0.01, ***p < 0.001, unpaired two-tailed Student’s t test.
Vehicle or (R)-9b (5 µM, overnight in serum free media) treated cells were lysed by sonication in receptor lysis buffer (RLB) and lysates were fractionated by SDS-PAGE, and transferred onto a PVDF membrane (Immobilon). […]
For orientation: A western blot detects proteins with antibodies after separation by electrophoresis.

As to `CN1CCN(c2ccc(Nc3ncc(Cl)c(NC[C@H]4CCCO4)n3)cc2)CC1` [(R)-9b], in the test with MCF7 xenografts, the “CDC20, CCNB1 and CCNB2 mRNA levels in tumors” value is on record as “significant reduction”; the “CDC20, CCNB1 and CCNB2 protein levels in tumor lysates” value was “marked decrease”. Also, the xenograft tumor growth entry in the test on MCF7 xenografts (4 weeks) is given as “significant loss of tumor growth”. Further, the “pY284-ACK1 levels (ACK1 activation)” value in the test on pY284-ACK1 is recorded as “reduced pY284-ACK1 levels”.
